Results on one compound are retold here after patent US8101581B2, “Use of D-ribose to treat cardiac arrhythmias” (Bioenergy, Inc., priority 2007, dated 2012).

The structures appear in SMILES notation. Entries after “also recorded” stand apart in the source; their conditions may differ. Read-outs that look alike come from different tables or passages of the source.

For data set [1] the following is noted: cited from earlier work.
Data set [2] deals with atrial fibrillation. Description: D-ribose administered to patients with a diagnosis of atrial fibrillation. The class given is in vivo, human. How it is done: Eight patients with a diagnosis of atrial fibrillation were administered D-ribose. It can be seen from the above data that not all patients are completely and immediately relieved of atrial fibrillation. […] Therefore, it is recommended that patients ingest 10 to 15 grams of D-ribose daily.

In the case of `O=C[C@H](O)[C@H](O)[C@H](O)CO` [D-ribose], the Digestive symptoms result in data set [1] (dose of five grams, most people) was “without experiencing these digestive symptoms”; in data set [1] (doses over about eight grams, many people), “flatulence and diarrhea”. Further, the “Relief?” value in data set [2] (Patient 1, duration of AT Recent, daily amount N/R, other medication CoQ) is “complete, immediate”; in data set [2] (Patient 2, duration, daily amount and other medications N/R), “complete, immediate”; in data set [2] (Patient 3, 5 grams D-ribose daily), “only partial relief; also recorded: “helped””; in data set [2] (Patient 4, 5 grams D-ribose daily) it was “delayed relief; also recorded: complete, within two”; in data set [2] (Patient 5, duration 20 years, 10 grams D-ribose daily, CoQ, L-carnitine, Mg), “complete and immediate relief”; in data set [2] (Patient 6, 10-15 grams D-ribose daily), “complete and immediate relief; also recorded: “practically”. For the same compound, the “Relief?” value in data set [2] (Patient 7, 5 grams D-ribose daily) is “complete, immediate”. Moreover, the Side effects entry in data set [2] (administration of low doses of D-ribose) was “no side effects”. The “Persistence of relief of atrial fibrillation” value in data set [2] (patients on continued D-ribose) is reported as “more than a year”.
